Experimental findings from patent US12643871B2, “Aryl formamide compound containing chiral sulfur oxide or salt thereof, preparation method, herbicidal composition and use thereof” (Qingdao Kingagroot Chemical Compound Co., Ltd., priority 2019, dated 2026) are described below.

Holding throughout (experiment): Weeding effect in post-emergence stage
Holding throughout (format): in vivo
Common to all, as to settings: 250 g/ha; 2 leaf stage; 15 days after application; fresh weight control rate

The subject of one assay is Digitaria sanguinalis. In outline: (§1)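 Pot-grown weeds sprayed post-emergence at the 2-leaf stage, 2 weeks after sowing, with compound in acetone/Tween 80 plus 1.5 L/ha methyl oleate concentrate at 500–15 g/ha. Fresh-weight growth control scored after 15 days in greenhouse, mean of three replicates, graded levels 0–5 (5: >85%, 0: <5%).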
In a further assay the test system is Setaria viridis. A digest of the protocol:
as §1

For the next assay, the system named is Echinochloa crusgali. A digest of the protocol: as §1
The next assay has as its system Amaranthus retroflexus. In outline: as §1
A further assay concerns Abutilon theophrasti. A digest of the protocol:
as §1

Structures are written as SMILES.

Consider `CCCOc1c(C(=O)Nc2nnc(C)o2)ccc(C(F)(F)F)c1[S@+]([O-])CCC` [Compound 533], for which the “weeding effect in post-emergence stage, activity level (growth control rate), Digitaria sanguinalis” value (shortened to “weeding effect … Digitaria sanguinalis”) in the assay on Digitaria sanguinalis was 5 (Level 5: growth control rate is above 85%). Moreover, in the assay with Setaria viridis, the “weeding effect in post-emergence stage, activity level (growth control rate), Setaria viridis” value (“weeding effect … Setaria viridis” below) is listed as 5 (Level 5: growth control rate is above 85%). The “weeding effect in post-emergence stage, activity level (growth control rate), Echinochloa crusgali” value (“weeding effect … Echinochloa crusgali” below) in the assay with Echinochloa crusgali is 5 (Level 5: growth control rate is above 85%). Moreover, in the assay on Amaranthus retroflexus, the “weeding effect in post-emergence stage, activity level (growth control rate), Amaranthus retroflexus” value (“weeding effect … Amaranthus retroflexus” for short) is reported as 5 (Level 5: growth control rate is above 85%). In addition, in the assay on Abutilon theophrasti, the “weeding effect in post-emergence stage, activity level (growth control rate), Abutilon theophrasti” value (“weeding effect … Abutilon theophrasti” below) is given as 5 (Level 5: growth control rate is above 85%).
Take `CCC[S@@+]([O-])c1c(C(F)(F)F)ccc(C(=O)Nc2nnc(C)o2)c1OC(C)C` [Compound 534]: the “weeding effect … Digitaria sanguinalis” value with Digitaria sanguinalis is 5 (Level 5: growth control rate is above 85%). Besides, the “weeding effect … Setaria viridis” value in the assay with Setaria viridis was 5 (Level 5: growth control rate is above 85%). For the same compound, in the assay on Echinochloa crusgali, the “weeding effect … Echinochloa crusgali” value is reported as 5 (Level 5: growth control rate is above 85%). Further, the “weeding effect … Amaranthus retroflexus” value in the assay with Amaranthus retroflexus is 5 (Level 5: growth control rate is above 85%). For the same compound, the “weeding effect … Abutilon theophrasti” value in the assay on Abutilon theophrasti is given as 5 (Level 5: growth control rate is above 85%).
Turning to `CCCCOc1c(C(=O)Nc2nnc(C)o2)ccc(C(F)(F)F)c1[S@+]([O-])CCC` [Compound 535], the “weeding effect … Digitaria sanguinalis” value in the assay on Digitaria sanguinalis is recorded as 5 (Level 5: growth control rate is above 85%). In addition, in the assay with Setaria viridis, the “weeding effect … Setaria viridis” value is listed as 5 (Level 5: growth control rate is above 85%). Besides, the “weeding effect … Echinochloa crusgali” value with Echinochloa crusgali is reported as 5 (Level 5: growth control rate is above 85%). Moreover, the “weeding effect … Amaranthus retroflexus” value with Amaranthus retroflexus is on record as 5 (Level 5: growth control rate is above 85%). For the same compound, the “weeding effect … Abutilon theophrasti” value in the assay on Abutilon theophrasti is given as 5 (Level 5: growth control rate is above 85%).
Regarding `CCC[S@@+]([O-])c1c(C(F)(F)F)ccc(C(=O)Nc2nnc(C)o2)c1Cl` [Compound 543], in the assay with Digitaria sanguinalis, the “weeding effect … Digitaria sanguinalis” value is recorded as 5 (Level 5: growth control rate is above 85%). The “weeding effect … Setaria viridis” value in the assay with Setaria viridis is reported as 5 (Level 5: growth control rate is above 85%). Besides, in the assay on Echinochloa crusgali, the “weeding effect … Echinochloa crusgali” value is 5 (Level 5: growth control rate is above 85%). Also, the “weeding effect … Amaranthus retroflexus” value in the assay on Amaranthus retroflexus is 5 (Level 5: growth control rate is above 85%). Moreover, in the assay with Abutilon theophrasti, the “weeding effect … Abutilon theophrasti” value was 5 (Level 5: growth control rate is above 85%).
On to `CSc1c(C(=O)Nc2nnc(C)o2)ccc(C(F)(F)F)c1[S@+]([O-])CC(C)C` [Compound 551], for which the “weeding effect … Digitaria sanguinalis” value in the assay with Digitaria sanguinalis was 5 (Level 5: growth control rate is above 85%). For the same compound, the “weeding effect … Setaria viridis” value with Setaria viridis was 5 (Level 5: growth control rate is above 85%). Further, the “weeding effect … Echinochloa crusgali” value in the assay on Echinochloa crusgali was 5 (Level 5: growth control rate is above 85%). For the same compound, in the assay with Amaranthus retroflexus, the “weeding effect … Amaranthus retroflexus” value is on record as 5 (Level 5: growth control rate is above 85%). Besides, the “weeding effect … Abutilon theophrasti” value with Abutilon theophrasti was 5 (Level 5: growth control rate is above 85%).
Take `C#CC[S@@+]([O-])c1c(C(F)(F)F)ccc(C(=O)Nc2nnc(C)o2)c1SC` [Compound 553]: the “weeding effect … Digitaria sanguinalis” value in the assay with Digitaria sanguinalis is given as 5 (Level 5: growth control rate is above 85%). Besides, the “weeding effect … Setaria viridis” value in the assay on Setaria viridis is given as 5 (Level 5: growth control rate is above 85%). The “weeding effect … Echinochloa crusgali” value in the assay with Echinochloa crusgali is 5 (Level 5: growth control rate is above 85%). Also, in the assay with Amaranthus retroflexus, the “weeding effect … Amaranthus retroflexus” value is given as 5 (Level 5: growth control rate is above 85%). The “weeding effect … Abutilon theophrasti” value in the assay on Abutilon theophrasti is on record as 5 (Level 5: growth control rate is above 85%).
Take `CSc1c(C(=O)Nc2nnc(C)o2)ccc(C(F)(F)F)c1[S@+]([O-])CCF` [Compound 555]: the “weeding effect … Digitaria sanguinalis” value in the assay with Digitaria sanguinalis is reported as 5 (Level 5: growth control rate is above 85%). Also, the “weeding effect … Setaria viridis” value in the assay on Setaria viridis is given as 5 (Level 5: growth control rate is above 85%). In addition, the “weeding effect … Echinochloa crusgali” value with Echinochloa crusgali is given as 5 (Level 5: growth control rate is above 85%). Further, in the assay with Amaranthus retroflexus, the “weeding effect … Amaranthus retroflexus” value is recorded as 5 (Level 5: growth control rate is above 85%). The “weeding effect … Abutilon theophrasti” value in the assay on Abutilon theophrasti was 5 (Level 5: growth control rate is above 85%).
Take `CSc1c(C(=O)Nc2nnc(C)o2)ccc(C(F)(F)F)c1[S@+]([O-])CC(F)(F)F` [Compound 556]: the “weeding effect … Digitaria sanguinalis” value in the assay on Digitaria sanguinalis is given as 5 (Level 5: growth control rate is above 85%). In addition, the “weeding effect … Setaria viridis” value with Setaria viridis is listed as 5 (Level 5: growth control rate is above 85%). Besides, in the assay with Echinochloa crusgali, the “weeding effect … Echinochloa crusgali” value is reported as 5 (Level 5: growth control rate is above 85%). Moreover, the “weeding effect … Amaranthus retroflexus” value in the assay on Amaranthus retroflexus was 5 (Level 5: growth control rate is above 85%). Also, in the assay on Abutilon theophrasti, the “weeding effect … Abutilon theophrasti” value is 5 (Level 5: growth control rate is above 85%).
Take `CSc1c(C(=O)Nc2nnc(C)o2)ccc(C(F)(F)F)c1[S@+]([O-])CC(C)F` (stereo partly shown) [Compound 557]: the “weeding effect … Digitaria sanguinalis” value with Digitaria sanguinalis is recorded as 5 (Level 5: growth control rate is above 85%). The “weeding effect … Setaria viridis” value in the assay on Setaria viridis is 5 (Level 5: growth control rate is above 85%). Also, the “weeding effect … Echinochloa crusgali” value in the assay with Echinochloa crusgali was 5 (Level 5: growth control rate is above 85%). Also, the “weeding effect … Amaranthus retroflexus” value in the assay on Amaranthus retroflexus was 5 (Level 5: growth control rate is above 85%). In addition, the “weeding effect … Abutilon theophrasti” value in the assay with Abutilon theophrasti is 5 (Level 5: growth control rate is above 85%).
With `CSc1c(C(=O)Nc2nnc(C)o2)ccc(C(F)(F)F)c1[S@+]([O-])CC(F)F` [Compound 558], the “weeding effect … Digitaria sanguinalis” value with Digitaria sanguinalis was 5 (Level 5: growth control rate is above 85%). The “weeding effect … Setaria viridis” value in the assay with Setaria viridis is reported as 5 (Level 5: growth control rate is above 85%). Further, the “weeding effect … Echinochloa crusgali” value in the assay with Echinochloa crusgali is 5 (Level 5: growth control rate is above 85%). In the assay with Amaranthus retroflexus, the “weeding effect … Amaranthus retroflexus” value was 5 (Level 5: growth control rate is above 85%). In addition, the “weeding effect … Abutilon theophrasti” value in the assay with Abutilon theophrasti was 5 (Level 5: growth control rate is above 85%).
On to `CSc1c(C(=O)Nc2nnc(C)o2)ccc(C(F)(F)F)c1[S@+]([O-])CCC(F)(F)F` [Compound 560], for which the “weeding effect … Digitaria sanguinalis” value in the assay with Digitaria sanguinalis was 5 (Level 5: growth control rate is above 85%). Besides, in the assay on Setaria viridis, the “weeding effect … Setaria viridis” value is reported as 5 (Level 5: growth control rate is above 85%). The “weeding effect … Echinochloa crusgali” value in the assay on Echinochloa crusgali is recorded as 5 (Level 5: growth control rate is above 85%). The “weeding effect … Amaranthus retroflexus” value in the assay with Amaranthus retroflexus was 5 (Level 5: growth control rate is above 85%). The “weeding effect … Abutilon theophrasti” value with Abutilon theophrasti is listed as 5 (Level 5: growth control rate is above 85%).
For `CSc1c(C(=O)Nc2nnc(C)o2)ccc(C(F)(F)F)c1[S@+]([O-])CCCC(F)(F)F` [Compound 561], the “weeding effect … Digitaria sanguinalis” value with Digitaria sanguinalis is listed as 5 (Level 5: growth control rate is above 85%). Besides, the “weeding effect … Setaria viridis” value in the assay on Setaria viridis is reported as 5 (Level 5: growth control rate is above 85%). Also, in the assay with Echinochloa crusgali, the “weeding effect … Echinochloa crusgali” value is 5 (Level 5: growth control rate is above 85%). Further, the “weeding effect … Amaranthus retroflexus” value in the assay with Amaranthus retroflexus is 5 (Level 5: growth control rate is above 85%). Also, the “weeding effect … Abutilon theophrasti” value in the assay on Abutilon theophrasti is recorded as 5 (Level 5: growth control rate is above 85%).
With `CSc1c(C(=O)Nc2nnc(C)o2)ccc(C(F)(F)F)c1[S@+]([O-])CCCl` [Compound 562], the “weeding effect … Digitaria sanguinalis” value in the assay on Digitaria sanguinalis is 5 (Level 5: growth control rate is above 85%). In addition, the “weeding effect … Setaria viridis” value in the assay on Setaria viridis is 5 (Level 5: growth control rate is above 85%). Further, the “weeding effect … Echinochloa crusgali” value in the assay with Echinochloa crusgali is reported as 5 (Level 5: growth control rate is above 85%). In addition, the “weeding effect … Amaranthus retroflexus” value in the assay on Amaranthus retroflexus was 5 (Level 5: growth control rate is above 85%). Moreover, in the assay on Abutilon theophrasti, the “weeding effect … Abutilon theophrasti” value is listed as 5 (Level 5: growth control rate is above 85%).
With `CSc1c(C(=O)Nc2nnc(C)o2)ccc(C(F)(F)F)c1[S@+]([O-])CCCCl` [Compound 563], in the assay on Digitaria sanguinalis, the “weeding effect … Digitaria sanguinalis” value is 5 (Level 5: growth control rate is above 85%). Further, the “weeding effect … Setaria viridis” value with Setaria viridis is reported as 5 (Level 5: growth control rate is above 85%). Also, in the assay on Echinochloa crusgali, the “weeding effect … Echinochloa crusgali” value is recorded as 5 (Level 5: growth control rate is above 85%). Besides, the “weeding effect … Amaranthus retroflexus” value in the assay with Amaranthus retroflexus is 5 (Level 5: growth control rate is above 85%). Also, the “weeding effect … Abutilon theophrasti” value in the assay with Abutilon theophrasti is reported as 5 (Level 5: growth control rate is above 85%).
